# Results as given in paper PMC10743086, “Immunofluorescence-Based Assay for High-Throughput Analysis of Multidrug Resistance Markers in Non-Small Cell Lung Carcinoma Patient-Derived Cells” (Diagnostics, 2023).
# Assays:
# Assay type in all cases: cell-based, human
# [1] = tested on: ABCB1 expression in NCI-H460 cells; experiment: Immunofluorescence assay of MDR marker ABCB1 expression; details: five concentrations, 24 h
# Method in brief: (§1)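 Compounds added 48 h after seeding, then 24 h exposure. Cells fixed in 4% paraformaldehyde, BSA-blocked, co-stained for ABCB1 with CK8/18 to separate cancer from stromal cells; 4x automated imaging. Cytotoxicity from cell-count scoring; ABCB1 expression from multi-wavelength cell scoring.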
# [2] = tested on: ABCB1 expression in NCI-H460/R cells; experiment: as above; details: five concentrations, 24 h
# Method in brief: as §1
# [3] = tested on: ABCG2 expression in cancer cells (CK8/18+); experiment: Immunofluorescence assay of ABCG2 expression in patient-derived NSCLC cultures; details: 7 days
# Experimental: (§2) Tissue samples were collected during surgery, and the NSCLC diagnosis, histological grade, stage, necrosis, and lymph node invasion status were determined by histopathological analysis. […] The surgical specimens were placed in a sterile tube containing antibiotic-antimycotic solution (Sigma-Aldrich Chemie GmbH, Taufkirchen, Germany) and immediately transported to the research laboratory for further processing.
# (§3) Upon arrival, the tissue was manually chopped with a surgical blade in a Petri dish under sterile conditions. The samples were cut into 3–5 mm pieces and further dissociated using the Tumor Dissociation Kit (Miltenyi Biotec, Bergisch Gladbach, Germany). The Tumor Dissociation Kit was used to dissociate the cells from the tumor tissue according to the manufacturer’s instructions. The samples were incubated in a 37 °C orbital shaker (KS 4000 ic control, IKA, Königswinter, Germany) at 300 rpm for 90 min. After incubation, the dissociated tissue was placed in DMEM/Ham’s F12 (1:3 ratio) growth medium supplemented with 5% fetal bovine serum (Corning, NY, USA), antibiotic-antimycotic solution, 4 µg/mL hydrocortisone (Sigma-Aldrich Chemie GmbH, Taufkirchen, Germany), 1 µg/mL insulin (Sigma-Aldrich Chemie GmbH, Taufkirchen, Germany), 10 ng/mL epidermal growth factor (BioLegend, San Diego, CA, USA), and 24 µg/mL adenine (Sigma-Aldrich Chemie GmbH, Taufkirchen, Germany). The DMEM and Ham’s F12 growth media were purchased from Sigma-Aldrich Chemie GmbH (Taufkirchen, Germany).
# (§4) The dissociated tissue was cultured in T-25 cell culture flasks until cell attachment was observed before the medium was replaced. If no cell attachment was achieved within 7 days, the sample was discarded. Successful patient-derived cultures were maintained at 37 °C in a humidified atmosphere with 5% CO2 and grown to confluence before undergoing further experiments. […] Partial trypsinization was performed by detaching the fibroblast-like cells with 1 mL of 0.05% trypsin for 1 min at 37 °C, followed by 2 min at room temperature (RT).
# (§5) Vinorelbine and pemetrexed were purchased from Selleckchem (Houston, TX, USA). Carboplatin, cisplatin, docetaxel, etoposide, gemcitabine, gefitinib, and paclitaxel were purchased from Sigma-Aldrich Chemie GmbH (Taufkirchen, Germany). The cisplatin, carboplatin, and gemcitabine were dissolved in sterile water, while the etoposide, docetaxel, vinorelbine, paclitaxel, gefitinib, and pemetrexed were dissolved in DMSO and stored at −20 °C. Before treatment, all the stock solutions were freshly diluted in sterile water.
# (§6) The primary cells were seeded in black, clear bottom 384-well cell culture microplates (Thermo Fisher Scientific, Waltham, MA, USA) in 50 µL of cell growth medium at a density of 1000 cells per well. The compounds were administered 72 h after seeding. The treatment lasted 7 days.
# (§7) The immunofluorescence assay for the quantification of MDR markers was optimized to distinguish cancer cells from stromal cells using a cytokeratin 8/18 (CK8/18) antibody cocktail. The cells were fixed with 4% paraformaldehyde for 20 min at RT and washed three times with PBS using the Wellwash Versa microplate washer (Thermo Fisher Scientific, Waltham, MA, USA). The cells were then blocked with 2% bovine serum albumin (BSA) in PBS for 1 h at RT. […] Co-immunostaining with antibodies against MDR markers was performed to detect the presence of ABCB1, ABCC1, and ABCG2 in both the cancer and stromal cells. […] The secondary antibodies were incubated with the cells at RT for 2 h in the dark. […] Finally, the cells were washed three times with PBS and stored at 4 °C in the dark before imaging.
# [4] = tested on: ABCG2 expression in non-cancer cells (CK8/18-); experiment: Immunofluorescence assay of ABCG2 expression in patient-derived NSCLC cultures, non-cancer cells; details: sample TR58, chemotherapeutics, 7 days
# Experimental: as §2
# Upon arrival, the tissue was manually chopped with a surgical blade in a Petri dish under sterile conditions. The samples were cut into 3–5 mm pieces and further dissociated using the Tumor Dissociation Kit (Miltenyi Biotec, Bergisch Gladbach, Germany). The Tumor Dissociation Kit was used to dissociate the cells from the tumor tissue according to the manufacturer’s instructions. The samples were incubated in a 37 °C orbital shaker (KS 4000 ic control, IKA, Königswinter, Germany) at 300 rpm for 90 min. […]
# The immunofluorescence assay for the quantification of MDR markers was optimized to distinguish cancer cells from stromal cells using a cytokeratin 8/18 (CK8/18) antibody cocktail. […]
# [5] = tested on: ABCC1 expression in non-cancer cells (CK8/18-); experiment: Immunofluorescence assay of ABCC1 expression in patient-derived NSCLC cultures, non-cancer cells; details: sample TR58, chemotherapeutics, 7 days
# Experimental: as §2, §3, §4, §5, §6, §7
# [6] = NCI-H460 (co-culture with MRC-5)
# [7] = NCI-H460/R (co-culture with MRC-5)
# [8] = culture TR58, cancer cells (CK8/18+)
# [9] = culture TR64, cancer cells (CK8/18+)
# [10] = culture TR65, cancer cells (CK8/18+)
# [11] = culture TR84, cancer cells (CK8/18+)
# [12] = culture TR87, cancer cells (CK8/18+)
smiles,measurement,setting,value
"N.N.[Cl][Pt][Cl] [Cisplatin, cisplatin]",ABCB1 Expression,[1]; [6],no change
same,ABCB1 Expression,[1]; NCI-H460 monoculture,increase (An increase in ABCB1 expression of at least 20% at a minimum of one concentration is shown in the table.)
same,ABCB1 Expression,[2]; [7],no change
same,ABCB1 Expression,[2]; NCI-H460/R monoculture,no change
same,ABCG2 expression,[3]; [8],"increase (An increase in ABCB1, ABCC1, or ABCG2 expression of at least 20% at a minimum of one concentration is shown in the table.)"
same,ABCG2 expression,[3]; [9],"increase (An increase in ABCB1, ABCC1, or ABCG2 expression of at least 20% at a minimum of one concentration is shown in the table.)"
same,ABCG2 expression,[3]; [10],"increase (An increase in ABCB1, ABCC1, or ABCG2 expression of at least 20% at a minimum of one concentration is shown in the table.)"
same,ABCG2 expression,[3]; [11],"increase (An increase in ABCB1, ABCC1, or ABCG2 expression of at least 20% at a minimum of one concentration is shown in the table.)"
same,ABCG2 expression,[3]; [12],"increase (An increase in ABCB1, ABCC1, or ABCG2 expression of at least 20% at a minimum of one concentration is shown in the table.)"
same,ABCG2 expression in CK8/18− cells,[4],increased
"CC(=O)O[C@@]12CO[C@@H]1C[C@H](O)[C@@]1(C)C(=O)[C@H](O)C3=C(C)[C@@H](OC(=O)[C@H](O)[C@@H](NC(=O)OC(C)(C)C)c4ccccc4)C[C@@](O)([C@@H](OC(=O)c4ccccc4)[C@H]21)C3(C)C [Docetaxel, docetaxel]",ABCB1 Expression,[1]; [6],increase (An increase in ABCB1 expression of at least 20% at a minimum of one concentration is shown in the table.)
same,ABCB1 Expression,[1]; NCI-H460 monoculture,increase (An increase in ABCB1 expression of at least 20% at a minimum of one concentration is shown in the table.)
same,ABCB1 Expression,[2]; [7],no change
same,ABCB1 Expression,[2]; NCI-H460/R monoculture,no change
same,ABCG2 expression,[3]; [8],"increase (An increase in ABCB1, ABCC1, or ABCG2 expression of at least 20% at a minimum of one concentration is shown in the table.)"
same,ABCG2 expression,[3]; [9],"increase (An increase in ABCB1, ABCC1, or ABCG2 expression of at least 20% at a minimum of one concentration is shown in the table.)"
same,ABCG2 expression,[3]; [10],no change
same,ABCG2 expression,[3]; [11],"increase (An increase in ABCB1, ABCC1, or ABCG2 expression of at least 20% at a minimum of one concentration is shown in the table.)"
same,ABCG2 expression,[3]; [12],"increase (An increase in ABCB1, ABCC1, or ABCG2 expression of at least 20% at a minimum of one concentration is shown in the table.)"
same,ABCC1 expression in CK8/18− cells,[5],elevated
"COc1cc([C@@H]2c3cc4c(cc3[C@@H](O[C@@H]3O[C@@H]5CO[C@@H](C)O[C@H]5[C@H](O)[C@H]3O)[C@H]3COC(=O)[C@H]23)OCO4)cc(OC)c1O [Etoposide, etoposide]",ABCB1 Expression,[1]; [6],increase (An increase in ABCB1 expression of at least 20% at a minimum of one concentration is shown in the table.)
same,ABCB1 Expression,[1]; NCI-H460 monoculture,increase (An increase in ABCB1 expression of at least 20% at a minimum of one concentration is shown in the table.)
same,ABCB1 Expression,[2]; [7],no change
same,ABCB1 Expression,[2]; NCI-H460/R monoculture,no change
same,ABCG2 expression,[3]; [8],no change
same,ABCG2 expression,[3]; [9],"increase (An increase in ABCB1, ABCC1, or ABCG2 expression of at least 20% at a minimum of one concentration is shown in the table.)"
same,ABCG2 expression,[3]; [10],"increase (An increase in ABCB1, ABCC1, or ABCG2 expression of at least 20% at a minimum of one concentration is shown in the table.)"
same,ABCG2 expression,[3]; [11],"increase (An increase in ABCB1, ABCC1, or ABCG2 expression of at least 20% at a minimum of one concentration is shown in the table.)"
same,ABCG2 expression,[3]; [12],"increase (An increase in ABCB1, ABCC1, or ABCG2 expression of at least 20% at a minimum of one concentration is shown in the table.)"
"CC(=O)O[C@H]1C(=O)[C@@]2(C)[C@H]([C@H](OC(=O)c3ccccc3)[C@]3(O)C[C@H](OC(=O)[C@H](O)[C@@H](NC(=O)c4ccccc4)c4ccccc4)C(C)=C1C3(C)C)[C@]1(OC(C)=O)CO[C@@H]1C[C@@H]2O [Paclitaxel, paclitaxel]",ABCB1 Expression,[1]; [6],increase (An increase in ABCB1 expression of at least 20% at a minimum of one concentration is shown in the table.)
same,ABCB1 Expression,[1]; NCI-H460 monoculture,increase (An increase in ABCB1 expression of at least 20% at a minimum of one concentration is shown in the table.)
same,ABCB1 Expression,[2]; [7],no change
same,ABCB1 Expression,[2]; NCI-H460/R monoculture,no change
same,ABCG2 expression,[3]; [8],"increase (An increase in ABCB1, ABCC1, or ABCG2 expression of at least 20% at a minimum of one concentration is shown in the table.)"
same,ABCG2 expression,[3]; [9],"increase (An increase in ABCB1, ABCC1, or ABCG2 expression of at least 20% at a minimum of one concentration is shown in the table.)"
same,ABCG2 expression,[3]; [10],"increase (An increase in ABCB1, ABCC1, or ABCG2 expression of at least 20% at a minimum of one concentration is shown in the table.)"
same,ABCG2 expression,[3]; [11],"increase (An increase in ABCB1, ABCC1, or ABCG2 expression of at least 20% at a minimum of one concentration is shown in the table.)"
same,ABCG2 expression,[3]; [12],"increase (An increase in ABCB1, ABCC1, or ABCG2 expression of at least 20% at a minimum of one concentration is shown in the table.)"
same,ABCC1 expression in CK8/18− cells,[5],elevated
"Nc1nc2[nH]cc(CCc3ccc(C(=O)N[C@@H](CCC(=O)O)C(=O)O)cc3)c2c(=O)[nH]1 [Pemetrexed, pemetrexed]",ABCB1 Expression,[1]; [6],no change
same,ABCB1 Expression,[1]; NCI-H460 monoculture,no change
same,ABCB1 Expression,[2]; [7],no change
same,ABCB1 Expression,[2]; NCI-H460/R monoculture,no change
same,ABCG2 expression,[3]; [8],no change
same,ABCG2 expression,[3]; [9],no change
same,ABCG2 expression,[3]; [10],no change
same,ABCG2 expression,[3]; [11],"increase (An increase in ABCB1, ABCC1, or ABCG2 expression of at least 20% at a minimum of one concentration is shown in the table.)"
same,ABCG2 expression,[3]; [12],no change
CCC1=C[C@@H]2CN(C1)Cc1c([nH]c3ccccc13)[C@@](C(=O)OC)(c1cc3c(cc1OC)N(C)[C@H]1[C@@](O)(C(=O)OC)[C@H](OC(C)=O)[C@]4(CC)C=CCN5CC[C@]31[C@@H]54)C2 [Vinorelbine],ABCB1 Expression,[1]; [6],increase (An increase in ABCB1 expression of at least 20% at a minimum of one concentration is shown in the table.)
same,ABCB1 Expression,[1]; NCI-H460 monoculture,increase (An increase in ABCB1 expression of at least 20% at a minimum of one concentration is shown in the table.)
same,ABCB1 Expression,[2]; [7],no change
same,ABCB1 Expression,[2]; NCI-H460/R monoculture,no change
same,ABCG2 expression,[3]; [8],"increase (An increase in ABCB1, ABCC1, or ABCG2 expression of at least 20% at a minimum of one concentration is shown in the table.)"
same,ABCG2 expression,[3]; [9],"increase (An increase in ABCB1, ABCC1, or ABCG2 expression of at least 20% at a minimum of one concentration is shown in the table.)"
same,ABCG2 expression,[3]; [10],"increase (An increase in ABCB1, ABCC1, or ABCG2 expression of at least 20% at a minimum of one concentration is shown in the table.)"
same,ABCG2 expression,[3]; [11],"increase (An increase in ABCB1, ABCC1, or ABCG2 expression of at least 20% at a minimum of one concentration is shown in the table.)"
same,ABCG2 expression,[3]; [12],"increase (An increase in ABCB1, ABCC1, or ABCG2 expression of at least 20% at a minimum of one concentration is shown in the table.)"
